Assay results reported in the supplement of paper PMC10307832.

What was measured:
Assay in all cases: relative viability (nuclei count vs DMSO), 5 days (fraction); higher = more cells survive
OSI-027 + Luminespib = compound: COc1cccc2cc(-c3nc([C@H]4CC[C@H](C(=O)O)CC4)n4ncnc(N)c34)[nH]c12 [OSI-027] + CCNC(=O)c1noc(-c2cc(C(C)C)c(O)cc2O)c1-c1ccc(CN2CCOCC2)cc1 [Luminespib] (partner 0.01 µM)
Method in brief: (§1)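 Relative viability equals treated-well nuclei counts divided by vehicle-well nuclei counts. Counts came from 4× images of lung cancer cell lines grown in 1536-well plates for 5 days after pin-tool dosing on the day after seeding. Dosing used one drug alone or a fixed anchor-drug dose plus five library-drug doses (not always all listed) in √10 steps, and values are medians of duplicate plates.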

OSI-027 + Foretinib = compound: COc1cccc2cc(-c3nc([C@H]4CC[C@H](C(=O)O)CC4)n4ncnc(N)c34)[nH]c12 [OSI-027] + COc1cc2c(Oc3ccc(NC(=O)C4(C(=O)Nc5ccc(F)cc5)CC4)cc3F)ccnc2cc1OCCCN1CCOCC1 [Foretinib] (partner 0.25 µM)
Method in brief: as §1

OSI-027 + Phenformin = compound: COc1cccc2cc(-c3nc([C@H]4CC[C@H](C(=O)O)CC4)n4ncnc(N)c34)[nH]c12 [OSI-027] + N=C(N)NC(=N)NCCc1ccccc1 [Phenformin] (partner 250 µM)
Method in brief: as §1

Alpelisib + Olaparib = compound: Cc1nc(NC(=O)N2CCC[C@H]2C(N)=O)sc1-c1ccnc(C(C)(C)C(F)(F)F)c1 [Alpelisib] + O=C(c1cc(Cc2n[nH]c(=O)c3ccccc23)ccc1F)N1CCN(C(=O)C2CC2)CC1 [Olaparib] (partner 8 µM)
Method in brief: as §1

Row | Cell Line | relative viability (OSI-027 + Luminespib; first compound 0.03162 µM) | relative viability (OSI-027 + Luminespib; first compound 0.1 µM) | relative viability (OSI-027 + Luminespib; first compound 0.3162 µM) | relative viability (OSI-027 + Luminespib; first compound 1 µM) | relative viability (OSI-027 + Foretinib; first compound 0.01 µM) | relative viability (OSI-027 + Foretinib; first compound 0.03162 µM) | relative viability (OSI-027 + Foretinib; first compound 0.1 µM) | relative viability (OSI-027 + Foretinib; first compound 0.3162 µM) | relative viability (OSI-027 + Foretinib; first compound 1 µM) | relative viability (OSI-027 + Phenformin; first compound 0.01 µM) | relative viability (OSI-027 + Phenformin; first compound 0.03162 µM) | relative viability (OSI-027 + Phenformin; first compound 0.1 µM) | relative viability (OSI-027 + Phenformin; first compound 0.3162 µM) | relative viability (OSI-027 + Phenformin; first compound 1 µM) | relative viability (Alpelisib + Olaparib; first compound 0.04 µM) | relative viability (Alpelisib + Olaparib; first compound 0.1265 µM) | relative viability (Alpelisib + Olaparib; first compound 0.4 µM) | relative viability (Alpelisib + Olaparib; first compound 1.265 µM) | relative viability (Alpelisib + Olaparib; first compound 4 µM) | relative viability (OSI-027 + Luminespib; first compound 0.01 µM)
1 | NCI-H23 | 0.215 | 0.188 | 0.203 | 0.225 | 0.908 | 0.937 | 0.929 | 0.653 | 0.464 | 0.824 | 0.767 | 0.808 | 0.669 | 0.533 | 0.254 | 0.269 | 0.321 | 0.232 | 0.289 | 
2 | NCI-H322M | 0.831 | 0.66 | 0.446 | 0.369 | 0.942 | 0.93 | 0.764 | 0.654 | 0.517 | 0.737 | 0.748 | 0.674 | 0.531 | 0.498 | 0.804 | 0.82 | 0.791 | 0.671 | 0.53 | 0.84
3 | NCI-H358 | 0.295 | 0.468 | 0.41 | 0.311 | 0.68 | 0.562 | 0.699 | 0.703 | 0.576 | 0.309 | 0.301 | 0.311 | 0.334 | 0.283 | 0.665 | 0.578 | 0.544 | 0.403 | 0.332 | 0.384
4 | NCI-H441 | 0.393 | 0.307 | 0.235 | 0.236 | 1.09 | 0.859 | 0.842 | 0.823 | 0.538 | 0.895 | 0.879 | 0.841 | 0.55 | 0.474 | 0.549 | 0.478 | 0.733 | 0.46 | 0.236 | 0.367
5 | NCI-H460 | 0.032 | 0.0283 | 0.0249 | 0.0266 | 1.06 | 0.762 | 1 | 0.948 | 0.582 | 0.656 | 0.648 | 0.567 | 0.542 | 0.224 | 0.446 | 0.501 | 0.496 | 0.42 | 0.375 | 0.0335
6 | NCI-H520 | 0.37 | 0.211 | 0.168 | 0.202 | 0.894 | 0.796 | 0.59 | 0.333 | 0.31 | 0.581 | 0.456 | 0.28 | 0.21 | 0.187 | 0.285 | 0.298 | 0.331 | 0.231 | 0.272 | 0.258
7 | NCI-H596 | 0.908 | 0.988 | 0.851 | 0.574 | 0.834 | 0.923 | 0.781 | 0.59 | 0.602 | 0.875 | 0.576 | 0.844 | 0.865 | 0.614 | 0.705 | 0.701 | 0.778 | 0.491 | 0.438 | 0.96
8 | NCI-H647 | 0.146 | 0.145 | 0.149 | 0.0965 | 1.39 | 1.14 | 1.28 | 1.01 | 0.575 | 0.569 | 0.565 | 0.475 | 0.415 | 0.242 | 0.534 | 0.485 | 0.569 | 0.487 | 0.436 | 0.153
9 | NCI-H650 | 0.731 | 0.749 | 0.648 | 0.381 | 1.08 | 1.09 | 1.01 | 0.868 | 0.514 | 0.424 | 0.487 | 0.394 | 0.417 | 0.285 | 0.391 | 0.409 | 0.425 | 0.378 | 0.317 | 0.757
10 | NCI-H661 | 0.977 | 0.846 | 0.917 | 0.409 | 0.984 | 0.893 | 1.03 | 0.975 | 0.599 | 0.263 | 0.286 | 0.254 | 0.258 | 0.245 | 0.734 | 0.773 | 0.878 | 0.732 | 0.749 | 0.894
11 | NCI-H727 | 0.328 | 0.381 | 0.318 | 0.479 | 0.601 | 1.03 | 0.863 | 0.812 | 0.398 | 0.569 | 0.546 | 0.557 | 0.466 | 0.407 | 0.816 | 0.708 | 0.768 | 0.754 | 0.448 | 0.444
12 | NCI-H838 | 0.338 | 0.336 | 0.192 | 0.195 | 1.04 | 0.827 | 0.901 | 0.568 | 0.416 | 0.588 | 0.62 | 0.479 | 0.339 | 0.28 | 0.774 | 0.754 | 0.744 | 0.637 | 0.613 | 0.281
13 | NCI-H1355 | 0.582 | 0.589 | 0.416 | 0.406 | 1.01 | 0.784 | 0.928 | 0.763 | 0.33 | 0.409 | 0.45 | 0.46 | 0.407 | 0.304 | 0.747 | 0.727 | 0.807 | 0.629 | 0.519 | 0.604
14 | NCI-H1395 | 0.556 | 0.621 | 0.546 | 0.439 | 0.965 | 0.903 | 0.959 | 0.847 | 0.637 | 0.446 | 0.431 | 0.396 | 0.401 | 0.369 | 0.45 | 0.511 | 0.472 | 0.408 | 0.451 | 0.717
15 | NCI-H1437 | 1.12 | 1.16 | 1.14 | 0.806 | 1.27 | 1.26 | 1.34 | 1.28 | 0.691 | 0.31 | 0.292 | 0.296 | 0.286 | 0.211 | 0.64 | 0.684 | 0.679 | 0.627 | 0.644 | 1.08
16 | NCI-H1650 | 0.234 | 0.208 | 0.214 | 0.219 | 1.42 | 1.21 | 1.19 | 1.25 | 0.797 | 0.37 | 0.366 | 0.444 | 0.378 | 0.253 | 0.878 | 0.786 | 0.932 | 0.523 | 0.622 | 0.208
17 | NCI-H1651 | 0.691 | 1.08 | 0.79 | 0.725 | 0.732 | 0.677 | 0.69 | 0.653 | 0.491 | 0.364 | 0.285 | 0.299 | 0.256 | 0.25 | 0.182 | 0.188 | 0.203 | 0.198 | 0.17 | 0.866
18 | NCI-H1666 | 1 | 0.996 | 0.891 | 0.915 | 1 | 0.942 | 0.922 | 0.795 | 0.783 | 0.548 | 0.603 | 0.556 | 0.639 | 0.578 | 0.771 | 0.774 | 0.816 | 0.704 | 0.688 | 1.01
19 | NCI-H1734 | 0.179 | 0.203 | 0.166 | 0.178 | 0.87 | 0.92 | 0.799 | 0.726 | 0.477 | 0.398 | 0.398 | 0.384 | 0.346 | 0.238 | 0.584 | 0.328 | 0.61 | 0.425 | 0.35 | 0.174
20 | NCI-H1755 | 0.533 | 0.369 | 0.382 | 0.416 | 0.859 | 0.92 | 0.835 | 0.809 | 0.522 | 0.615 | 0.696 | 0.594 | 0.569 | 0.451 | 0.928 | 0.892 | 0.917 | 0.818 | 0.788 | 0.577
21 | NCI-H1793 | 0.188 | 0.168 | 0.132 | 0.168 | 0.574 | 0.557 | 0.539 | 0.345 | 0.166 | 0.365 | 0.367 | 0.306 | 0.297 | 0.184 | 0.805 | 0.714 | 0.685 | 0.495 | 0.367 | 0.162
22 | NCI-H1915 | 0.972 | 0.862 | 0.687 | 0.562 | 1.23 | 1.14 | 1.12 | 1.03 | 0.582 | 0.38 | 0.38 | 0.359 | 0.381 | 0.32 | 0.264 | 0.288 | 0.303 | 0.236 | 0.235 | 1.04
23 | NCI-H1944 | 0.82 | 0.537 | 0.534 | 0.273 | 0.835 | 0.918 | 0.884 | 0.73 | 0.394 | 0.2 | 0.222 | 0.19 | 0.172 | 0.137 | 0.41 | 0.431 | 0.427 | 0.341 | 0.337 | 0.856
24 | NCI-H1975 | 0.195 | 0.157 | 0.121 | 0.187 | 1 | 0.954 | 0.783 | 0.841 | 0.635 | 0.435 | 0.412 | 0.379 | 0.363 | 0.298 | 0.689 | 0.859 | 0.838 | 0.563 | 0.625 | 0.232
25 | NCI-H1993 | 0.795 | 0.71 | 0.498 | 0.548 | 0.749 | 0.633 | 0.549 | 0.487 | 0.575 | 0.529 | 0.472 | 0.492 | 0.546 | 0.547 | 1.01 | 0.868 | 1.13 | 0.585 | 0.735 | 0.815
26 | NCI-H2009 | 1.06 | 1.05 | 0.924 | 0.603 | 1.25 | 1.14 | 1.18 | 1.11 | 0.801 | 0.477 | 0.48 | 0.487 | 0.425 | 0.277 | 0.756 | 0.659 | 0.674 | 0.647 | 0.599 | 1.08
